The record followed here is patent US6479531B1, “Gastrin and cholecystokinin receptor ligands” (James Black Foundation Limited, priority 1998, dated 2002).

Assay [1] addresses T1, gastrin receptor (Rattus norvegicus, UniProt P30553).
T1 construct: The stomach was excised and flushed with ca. 1 ml of unbuffered physiological saline solution; from tissue; host or cells: isolated whole stomach of immature rats (ca. 21 days old)
T1 sequence (P30553 1-452): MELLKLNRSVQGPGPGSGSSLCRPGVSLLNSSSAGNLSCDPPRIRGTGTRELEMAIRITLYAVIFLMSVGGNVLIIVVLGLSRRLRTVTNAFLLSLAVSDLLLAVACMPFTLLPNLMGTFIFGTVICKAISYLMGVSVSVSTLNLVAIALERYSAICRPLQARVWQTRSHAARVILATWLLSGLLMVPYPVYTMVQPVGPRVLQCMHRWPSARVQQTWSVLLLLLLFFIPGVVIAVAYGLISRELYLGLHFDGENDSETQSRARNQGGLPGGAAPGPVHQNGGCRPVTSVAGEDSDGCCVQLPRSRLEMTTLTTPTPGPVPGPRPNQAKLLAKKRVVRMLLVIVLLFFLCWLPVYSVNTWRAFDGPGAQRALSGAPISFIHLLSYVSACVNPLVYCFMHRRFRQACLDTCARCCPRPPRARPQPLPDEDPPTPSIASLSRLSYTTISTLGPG
Kind of assay: gastrin antagonist activity in immature rat stomach assay (pentagastrin dose-response, acid secretion). The following applies: isolated immature rat stomach, cumulative pentagastrin dose-response curves, read-out: Gastrin pKb (converted). In short, it runs like this:
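Isolated, lumen-perfused stomach from immature rats (33-50 g, ca. 21 days) in a 37° organ bath with 3×10^−8 M 5-methylfurmethide, gassed 95% O2/5% CO2. Compound added serosally after 120 min stabilisation; cumulative pentagastrin dose-response curves begun 60 min later, acid secretion followed by perfusate pH.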

The target of assay [2] is T2, CCKB receptor (Mus musculus, UniProt P56481).
T2 construct: The whole brains from male mice (CD1 22-25 g; Charles River) were removed; from tissue; host or cells: cerebral cortex membranes of male CD1 mice
T2 sequence (P56481 1-453): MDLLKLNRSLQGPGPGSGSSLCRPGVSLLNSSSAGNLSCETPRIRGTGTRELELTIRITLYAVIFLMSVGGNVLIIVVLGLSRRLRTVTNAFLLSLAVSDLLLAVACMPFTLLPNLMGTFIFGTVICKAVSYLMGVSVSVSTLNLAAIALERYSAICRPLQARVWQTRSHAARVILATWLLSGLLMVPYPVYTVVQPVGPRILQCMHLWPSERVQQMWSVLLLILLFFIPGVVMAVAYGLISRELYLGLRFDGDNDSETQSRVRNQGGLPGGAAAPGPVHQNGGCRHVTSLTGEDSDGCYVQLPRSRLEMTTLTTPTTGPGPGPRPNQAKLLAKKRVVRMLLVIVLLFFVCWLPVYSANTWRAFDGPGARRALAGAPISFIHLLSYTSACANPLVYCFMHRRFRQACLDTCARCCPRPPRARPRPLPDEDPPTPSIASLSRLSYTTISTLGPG
Kind of assay: CCKB receptor radioligand binding assay in mouse cortical membranes. As to conditions: [125I]-CCK8(S) 200 pM, 150 min at 21±3°, read-out: CCKB pKi (converted). In short, it runs like this: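 Bound radioactivity was gamma-counted after rapid GF/B filtration and cold 50 mM Tris-HCl (pH 7.4) washes. The tissue was cerebral cortex from male CD1 mice, prepared as twice-centrifuged membranes in pH 7.2 HEPES/NaCl/KCl/MgCl2/EDTA buffer with bacitracin at 20 mg/ml original wet weight.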

SMILES strings stand for the structures.

As for `O=C(O)c1cccc(NC(=O)c2[nH]c(C3CCCC3)nc2CCC23CC4CC(CC(C4)C2)C3)c1` [Example 196, 3-{[5-(2-Adamantan-1-ethyl)-2-cyclopentyl-1H-imidazole-4-carbonyl]-amino}-benzoic Acid], the Kb in assay [1] was 7.08 nM. Besides, in assay [2], the Ki is 38 nM.
On the same counts, the results for `O=C(O)c1cccc(NC(=O)c2nc(-c3cccc(Cl)c3Cl)[nH]c2CCC23CC4CC(CC(C4)C2)C3)c1` [Example 69, 3-{[5-(2-Adamantan-1-yl-ethyl)-2-(2,3-dichloro-phenyl)-1H-imidazole-4-carbonyl]-amino}-benzoic Acid] are 89.1 nM and 398 nM.
With `CC1(c2nc(C(=O)Nc3ccc(F)c(C(=O)O)c3)c(CCC34CC5CC(CC(C5)C3)C4)[nH]2)CCCCC1` [Example 201, 5-{[5-(2-Adamantan-1-yl-ethyl)-2-(1-methyl-cyclohexyl)-1H-imidazole-4-carbonyl]-amino]-2-fluoro-benzoic Acid], in assay [1], the Kb is 4.9 nM. In assay [2], the Ki is 8.71 nM.
The matching figures for `O=C(O)c1cccc(NC(=O)c2nc(-c3c(Cl)cccc3Cl)[nH]c2CCC23CC4CC(CC(C4)C2)C3)c1` [Example 148, 3-{[5-(2-Adamantan-1-yl-ethyl)-2-(2,6-dichlorophenyl)-1H-imidazole-4-carbonyl]-amino}-benzoic Acid]: 53.7 nM and 102 nM.
Consider `O=C(O)c1cccc(NC(=O)c2nc(C3CC4CCC3C4)[nH]c2CCC23CC4CC(CC(C4)C2)C3)c1` (racemic) [Example 114, (±)-endo-3-{[5-(2-Adamantan-1-yl-ethyl)-2-bicyclo[2.2.1]hept-2-yl-1H-imidazole-4-carbonyl]-amino}-benzoic Acid], for which the Kb in assay [1] was 2.24 nM. Besides, the Ki in assay [2] is 31.6 nM.
The matching figures for `Cc1ccccc1-c1nc(C(=O)Nc2ccc(Br)c(C(=O)O)c2)c(CCC23CC4CC(CC(C4)C2)C3)[nH]1` [Example 246, 5-{[5-(2-Adamantan-1-yl-ethyl)-2-o-tolyl-1H-imidazole-4-carbonyl]-amino}-2-bromo-benzoic Acid]: 832 nM and 3.63 nM.
The matching figures for `CC1=C(Cc2nc(C(=O)Nc3cccc(C(=O)O)c3)c(CCC34CC5CC(CC(C5)C3)C4)[nH]2)C(C)(C)CCC1` [Example 202, 3-{[5-(2-Adamantan-1-yl-ethyl)-2-(2,6,6-trimethyl-cyclohex-1-enylmethyl)-1H-imidazole-4-carbonyl]-amino)-benzoic Acid]: 28.8 nM and 112 nM.
Regarding `O=C(O)c1cccc(NC(=O)c2nc(-c3cnc[nH]3)[nH]c2CCC23CC4CC(CC(C4)C2)C3)c1` [Example 110, 3-{[5-(2-Adamantan-1-yl-ethyl)-1H-3′H-[2,4′]biimidazolyl-4-carbonyl]-amino}-benzoic Acid], the Kb in assay [1] was 1050 nM. In assay [2], the Ki was 339 nM.
In the case of `Cc1ncccc1-c1nc(C(=O)Nc2cccc(C(=O)O)c2)c(CCC23CC4CC(CC(C4)C2)C3)[nH]1` [Example 181, 3-{[5-(2-Adamantan-1-yl-ethyl)-2-(2-methyl-pyridine-3-yl)-1H-imidazole-4-carbonyl]-amino}-benzoic Acid], the Ki in assay [2] is 676 nM.
On the same count and under the same terms, as for `O=C(O)c1cccc(NC(=O)c2nc(-c3cccc4ccccc34)[nH]c2CCC23CC4CC(CC(C4)C2)C3)c1` [Example 145, 3-{[5-(2-Adamantan-1-yl-ethyl)-2-naphthalen-1-yl-1H-imidazole-4-carbonyl]-amino}-benzoic Acid], the figure is 263 nM; as for `O=C(O)c1cccc(NC(=O)c2nc(-c3cc(Cl)cc(Cl)c3)[nH]c2CCC23CC4CC(CC(C4)C2)C3)c1` [Example 147, 3-{[5-(2-Adamantan-1-yl-ethyl)-2-(3,5-dichlorophenyl)-1H-imidazole-4-carbonyl]-amino}-benzoic Acid], 912 nM.
On the same count and under the same terms, as for `Cc1ccccc1-c1nc(C(=O)Nc2cc(C(=O)O)ccc2F)c(CCC23CC4CC(CC(C4)C2)C3)[nH]1` [Example 238, 3-{[5-(2-Adamantan-1-yl-ethyl)-2-o-tolyl-1H-imidazole-4-carbonyl]-amino}-4-fluoro-benzoic Acid], the figure is 5890 nM; as for `O=C(Nc1cccc(-c2nnn[nH]2)c1)c1nc(C2CCCCC2)[nH]c1CCC12CC3CC(CC(C3)C1)C2` [Example 130], 9.55 nM; as for `O=C(O)c1cccc(NC(=O)c2nc(C3CCCCCCCCCCC3)[nH]c2CCC23CC4CC(CC(C4)C2)C3)c1` [Example 127, 3-{[5-(2-Adamantan-1-yl-ethyl)-2-cyclododecyl-1H-imidazole-4-carbonyl]-amino}-benzoic Acid], 1700 nM.
On the same count and under the same terms, as for `O=C(O)c1cc(NC(=O)c2nc(-c3ccc[nH]3)[nH]c2CC2CCCCCC2)cc(C(=O)O)c1` [Example 33, 5-[(5-Cycloheptylmethyl-2-(1H-pyrrol-2-yl)-1H-imidazole-4-carbonyl)-amino]-isophthalic Acid], the figure is 1860 nM; as for `Cc1ccccc1-c1nc(C(=O)Nc2cc(C(=O)O)cc(C(F)(F)F)c2)c(CCC23CC4CC(CC(C4)C2)C3)[nH]1` [Example 243, 3-{[5-(2-Adamantan-1-yl-ethyl)-2-o-tolyl-1H-imidazole-4-carbonyl]-amino}-5-trifluoromethyl-benzoic Acid], 537 nM.
Regarding `O=C(O)c1cc(NC(=O)c2nc(-c3cccc4ccccc34)[nH]c2CC2CCCCCC2)cc(C(=O)O)c1` [Example 23, 5-[(5-Cycloheptylmethyl-2-naphthalen-1-yl-1H-imidazole-4-carbonyl)-amino]-isophthalic Acid], the Ki in assay [2] is 1230 nM.
Regarding `O=C(O)c1cccc(NC(=O)c2nc(-c3ccc(Cl)c(Cl)c3)[nH]c2CCC23CC4CC(CC(C4)C2)C3)c1` [Example 68, 3-{[5-(2-Adamantan-1-yl-ethyl)-2-(3,4-dichloro-phenyl)-1H-imidazole-4-carbonyl]-amino}-benzoic Acid], in assay [2], the Ki is 468 nM.
Regarding `O=C(O)c1cccc(NC(=O)c2nc(C(C3CCCCC3)C3CCCCC3)[nH]c2CCC23CC4CC(CC(C4)C2)C3)c1` [Example 128, 3-{[5-(2-Adamanatan-1-yl-ethyl)-2-dicyclohexylmethyl-1H-imidazole-4-carbonyl]-amino}-benzoic Acid], the Ki in assay [2] is 2140 nM.
The same measure, in the same setting: the value for `O=C(Nc1cc(-c2nnn[nH]2)cc(-c2nnn[nH]2)c1)c1cc(-c2ccc3ccccc3c2)[nH]c1CC12CC3CC(CC(C3)C1)C2` [Example 5, 2-Adamantan-1-ylmethyl-5-naphthalen-2-yl-1H-pyrrole-3-carboxylic Acid [3,5-bis-(1H-tetrazol-5-yl)-phenyl]-amide] was 229 nM; that for `Cc1ccc(C(=O)O)cc1NC(=O)c1nc(-c2ccccc2C)[nH]c1CCC12CC3CC(CC(C3)C1)C2` [Example 239, 3-{[5-(2-Adamantan-1-yl-ethyl)-2-o-tolyl-1H-imidazole-4-carbonyl]-amino}-4-methyl-benzoic Acid] was 2000 nM.
As to `O=C(Nc1cc(-c2nnn[nH]2)cc(-c2nnn[nH]2)c1)c1cc(-c2ccc3ccccc3c2)[nH]c1CC1CCCCCC1` [Example 15, 2-Cycloheptylmethyl-5-naphthalen-2-yl-1H-pyrrole-3-carboxylic Acid [3,5-bis-(1H-tetrazol-5-yl)-phenyl]-amide], the Ki in assay [2] was 182 nM.
